# PubChem BioAssay (NCI)
#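 Briefly, cells in 96-well plates were exposed to five compound concentrations for 48 h, and endpoints were estimated by linear interpolation. GI50 is the concentration that inhibits growth by half. At the TGI there is no net growth.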
# Key:
# Test in all cases: NCI tumour cell line growth inhibition, 48 h
# [1] = test system: DU-145 prostate
# [2] = test system: NCI-H23 lung
# [3] = test system: EKVX NSCLC
# [4] = test system: HOP-92 NSCLC
# [5] = test system: SNB-19 CNS
# [6] = test system: SW-620 colon
# [7] = test system: COLO 205 colon
# [8] = test system: RXF 393 renal
# [9] = test system: SK-OV-3 ovarian
# [10] = test system: HCT-116 colon
# [11] = test system: K-562 leukemia
# [12] = test system: OVCAR-4 ovarian
# [13] = test system: ACHN renal
# [14] = test system: CCRF-CEM leukemia
# [15] = test system: TK-10 renal
# [16] = test system: SF-539 CNS
# [17] = test system: HOP-62 NSCLC
# [18] = test system: A549 NSCLC
# [19] = test system: HCC-2998 colon
# [20] = test system: UACC-62 melanoma
# [21] = test system: PC-3 prostate
# [22] = test system: OVCAR-5 ovarian
# [23] = test system: M14 melanoma
# [24] = test system: NCI/ADR-RES ovarian
# [25] = test system: MDA-MB-435
# [26] = test system: HT29 colon
# [27] = test system: SN12C renal
# [28] = test system: MCF7 breast
# [29] = test system: SNB-75 CNS
# [30] = test system: U251 CNS
# [31] = test system: OVCAR-3 ovarian
# [32] = test system: SF-268 CNS
# [33] = test system: SK-MEL-5 melanoma
# [34] = test system: RPMI-8226 leukemia
# [35] = test system: NCI-H522 lung
# [36] = test system: CAKI-1 renal
# [37] = test system: HL-60(TB) leukemia
# [38] = test system: 786-0 renal
# [39] = test system: UO-31 renal
# [40] = test system: SF-295 CNS
# [41] = test system: BT-549 breast
# [42] = test system: KM12 colon
# [43] = test system: NCI-H460 lung
# [44] = test system: HS 578T breast
# [45] = test system: T-47D breast
# [46] = test system: UACC-257 melanoma
# [47] = test system: A498 renal
# [48] = test system: MALME-3M melanoma
# [49] = test system: SR leukemia
# [50] = test system: SK-MEL-28 melanoma
# [51] = test system: NCI-H226 lung
# [52] = test system: MDA-MB-231 breast
# [53] = test system: LOX IMVI melanoma
# [54] = test system: SK-MEL-2 melanoma
# [55] = test system: IGROV1 ovarian
# [56] = test system: MOLT-4 leukemia
# [57] = test system: HCT-15 colon
# [58] = test system: OVCAR-8 ovarian
structure (smiles),measurement,setting,value
O=S(=O)(Nc1ccc(Cl)c(F)c1)c1ccc(-c2cnc(C3CC3)o2)cc1,GI50,[1],1.65 µM
same,TGI,[1],14.7 µM
same,GI50,[2],1.19 µM
same,TGI,[2],13.5 µM
same,GI50,[3],1.05 µM
same,TGI,[3],14.8 µM
same,GI50,[4],0.734 µM
same,TGI,[4],6.61 µM
same,GI50,[5],0.477 µM
same,TGI,[5],14.8 µM
same,GI50,[6],0.374 µM
same,TGI,[6],15 µM
same,GI50,[7],0.651 µM
same,TGI,[7],9.7 µM
same,GI50,[8],0.282 µM
same,TGI,[8],2.75 µM
same,GI50,[9],0.887 µM
same,TGI,[9],18.3 µM
same,GI50,[10],0.382 µM
same,TGI,[10],12.7 µM
same,GI50,[11],0.21 µM
same,TGI,[11],> 65.3 µM
same,GI50,[12],1.82 µM
same,TGI,[12],16.2 µM
same,GI50,[13],0.622 µM
same,TGI,[13],15.8 µM
same,GI50,[14],0.382 µM
same,TGI,[14],21.5 µM
same,GI50,[15],1.55 µM
same,TGI,[15],12.7 µM
same,GI50,[16],0.354 µM
same,TGI,[16],2.78 µM
same,GI50,[17],0.579 µM
same,TGI,[17],17.6 µM
same,GI50,[18],0.825 µM
same,TGI,[18],14.7 µM
same,GI50,[19],1.72 µM
same,TGI,[19],12.3 µM
same,GI50,[20],0.281 µM
same,TGI,[20],8 µM
same,GI50,[21],0.516 µM
same,TGI,[21],13.9 µM
same,GI50,[22],1.61 µM
same,TGI,[22],14.5 µM
same,GI50,[23],0.328 µM
same,TGI,[23],12.9 µM
same,GI50,[24],0.369 µM
same,TGI,[24],7.56 µM
same,GI50,[25],0.0853 µM
same,TGI,[25],0.484 µM
same,GI50,[26],0.339 µM
same,TGI,[26],5.27 µM
same,GI50,[27],0.808 µM
same,TGI,[27],14.4 µM
same,GI50,[28],0.284 µM
same,TGI,[28],13.4 µM
same,GI50,[29],0.172 µM
same,TGI,[29],0.692 µM
same,GI50,[30],0.448 µM
same,TGI,[30],14.4 µM
same,GI50,[31],0.357 µM
same,TGI,[31],3.48 µM
same,GI50,[32],1.03 µM
same,TGI,[32],20.1 µM
same,GI50,[33],0.511 µM
same,TGI,[33],11.1 µM
same,GI50,[34],0.531 µM
same,TGI,[34],> 53.4 µM
same,GI50,[35],0.192 µM
same,TGI,[35],4.42 µM
same,GI50,[36],0.36 µM
same,TGI,[36],15.2 µM
same,GI50,[37],0.313 µM
same,TGI,[37],3.8 µM
same,GI50,[38],0.535 µM
same,TGI,[38],16.2 µM
same,GI50,[39],0.855 µM
same,TGI,[39],11.9 µM
same,GI50,[40],0.324 µM
same,TGI,[40],2.99 µM
same,GI50,[41],0.515 µM
same,TGI,[41],15.4 µM
same,GI50,[42],0.379 µM
same,TGI,[42],13.3 µM
same,GI50,[43],0.413 µM
same,TGI,[43],11.6 µM
same,GI50,[44],0.355 µM
same,TGI,[44],8.56 µM
same,GI50,[45],0.436 µM
same,TGI,[45],15.6 µM
same,GI50,[46],1.35 µM
same,TGI,[46],18.2 µM
same,GI50,[47],0.232 µM
same,TGI,[47],0.922 µM
same,GI50,[48],0.821 µM
same,TGI,[48],23.4 µM
same,GI50,[49],0.253 µM
same,TGI,[49],> 43 µM
same,GI50,[50],1.58 µM
same,TGI,[50],17.4 µM
same,GI50,[51],1.25 µM
same,TGI,[51],16.5 µM
same,GI50,[52],1.06 µM
same,TGI,[52],11.5 µM
same,GI50,[53],0.503 µM
same,TGI,[53],19.1 µM
same,GI50,[54],0.603 µM
same,TGI,[54],18.9 µM
same,GI50,[55],0.556 µM
same,TGI,[55],15.2 µM
same,GI50,[56],0.614 µM
same,TGI,[56],25 µM
same,GI50,[57],0.332 µM
same,TGI,[57],12.6 µM
same,GI50,[58],1.09 µM
same,TGI,[58],19.8 µM
